According to publication PMC10257182, “Discovery of senolytics using machine learning” (Nature Communications, 2023):
“And” between values parts separate entries of the source, which are not always exact repeats. Equal entries are not always repeated. Structures can show the parent of a compound that is named as a salt. Where two headings read alike, the source gives them in different places.

Tested on: non-senescent control A549 cells
Experiment: Nuclei count senolytic assay, TIS model, non-senescent control cells
Format: cell-based, human
Conditions: for % Cell Survival: control cells, single replicate
Description: We performed a second validation of the effectiveness of our machine learning models using a different stressor. We focused on therapy-induced senescence (TIS, Supplementary Fig. 6a), where human epithelial cancerous cells (A549) were induced to become senescent by addition of etoposide. Cells were treated with 100 μM etoposide for 48 h, followed by another three days of exposure to media in standard conditions.
We performed experimental validation of the compounds with z-score > 8 (Fig. 2e). […] We employed two cellular models of senescence: one of OIS and a second one of TIS. For the OIS case, we utilised IMR90 ER:RAS cells with 4-OHT at 100 nM. […] For the TIS model, we used A549 cells with etoposide at 100 μM. The exposure of the cells to etoposide lasted 48 h, after which period the cells were cultivated for a further three days with normal media.
IMR90 (CCL-186) human foetal lung fibroblasts and A549 (CCL-185) human lung adenocarcinoma cells were obtained from the American Type Culture Collection (ATCC, Manassas, VA). The cell lines were confirmed to be mycoplasma negative (Lonza MycoAlert, cat #LT07-118). IMR90 ER:RAS is a derivative of IMR90 cells expressing a switchable version of oncogenic H-Ras[84]. IMR90 ER:RAS and A549 cells were maintained in Dulbecco’s Modified Eagle Medium (DMEM, ThermoFisher) supplemented with foetal bovine serum (10%), L-glutamine (2 mM, ThermoFisher), and antibiotic-antimycotic solution (1%, ThermoFisher) and incubated under standard tissue culture conditions (37 °C and 5% CO2). For induction of the senescent phenotype, IMR90-ER:RAS cells were cultured in hydroxytamoxifen (4-OHT) (Sigma) added media at 100 nM final concentration. IMR90 were kept in culture for over 27 passages for replicative senescence. Cells were tested for mycoplasma on a regular basis.
Cells were seeded (50 μL per well) into 384-well plates (IMR90 ER:RAS cells in Nunc Optical Bottom Polybase Microplates [#142761, Thermo Scientific, Rochester, NY] and A549 cells in CELLSTAR Cell Culture Microplates [#781091, Greiner Bio-One, Kremsmünster, Austria]). Cells were incubated under standard tissue culture conditions for 24 h before the addition of compounds. Passage 14 IMR90 ER:RAS cells were seeded at 1300 cells per well in the control condition, and at 1600 cells per well in the senescent case. Passage 34 A549 cells were seeded at 7000 cells per well in the control condition, and at 10,000 cells per well in the senescent case.
Dose response plates were prepared with a DMSO control and a 10-point […] concentration range, and added to the compounds using a D300e digital dispenser (Tecan Trading AG, Switzerland) at a final concentration of between 10 μM and 10 nM. Every screened condition was carried out in triplicate. After 72 h of incubation with exposure to the compounds, cells were fixed by the addition of an equal volume of formaldehyde (8%, 50 μL; #BP531-500, Fisher Bioreagents, Fisher Scientific, Loughborough, Leicestershire) to the existing media, incubated at room temperature (30 min), and washed three times in phosphate-buffered saline (PBS). Cells were then permeabilised in Triton-X100 (0.1%, 50 μL) and incubated at room temperature (30 min) followed by three more washes with PBS.
Cells were stained with Hoechst 33342 for nuclei count (excitation/emission wavelength at 387/447 […], DAPI channel, original concentration at 10 mg/ml, final concentration at 2 μg/ml; H1399, Molecular Probes, Eugene, OR). The staining solution was prepared in bovine serum albumin solution (10%). The staining solution was added to each well (30 μL) and incubated in the dark at room temperature (30 min), followed by three washes with PBS and no final aspiration. Plates were foil sealed.
Plates were imaged on an ImageXpress micro XLS (Molecular Devices, Eugene, OR) equipped with a robotic plate loader (Scara4, PAA, UK).

[1] = Homo sapiens, A549, log (dose) [M] -5, Control cells, mean, read-out: Mean % Cell Survival
[2] = Homo sapiens, A549, log (dose) [M] -5.33, Control cells, mean, read-out: Mean % Cell Survival
[3] = Homo sapiens, A549, log (dose) [M] -5.66, Control cells, mean, read-out: Mean % Cell Survival
[4] = Homo sapiens, A549, log (dose) [M] -6, Control cells, mean, read-out: Mean % Cell Survival
[5] = Homo sapiens, A549, log (dose) [M] -6.33, Control cells, mean, read-out: Mean % Cell Survival
[6] = Homo sapiens, A549, log (dose) [M] -6.66, Control cells, mean, read-out: Mean % Cell Survival
[7] = Homo sapiens, A549, log (dose) [M] -7, Control cells, mean, read-out: Mean % Cell Survival
[8] = Homo sapiens, A549, log (dose) [M] -7.33, Control cells, mean, read-out: Mean % Cell Survival
[9] = Homo sapiens, A549, log (dose) [M] -7.66, Control cells, mean, read-out: Mean % Cell Survival
[10] = Homo sapiens, A549, log (dose) [M] -8, Control cells, mean, read-out: Mean % Cell Survival
[11] = Homo sapiens, A549, read-out: Mean % Cell Survival

| Compound | viability at 10 µM [1] [%] | viability at 4.68 µM [2] [%] | viability at 2.19 µM [3] [%] | viability at 1 µM [4] [%] | viability at 0.468 µM [5] [%] | viability at 0.219 µM [6] [%] | viability at 0.1 µM [7] [%] | viability at 0.0468 µM [8] [%] | viability at 0.0219 µM [9] [%] | viability at 0.01 µM [10] [%] | also measured |
| --- | --- | --- | --- | --- | --- | --- | --- | --- | --- | --- | --- |
| CO[C@H]1C[C@@H]2CC[C@@H](C)[C@@](O)(O2)C(=O)C(=O)N2CCCC[C@H]2C(=O)O[C@H]([C@H](C)C[C@@H]2CC[C@@H](OP(C)(C)=O)[C@H](OC)C2)CC(=O)[C@H](C)/C=C(\C)[C@@H](O)[C@@H](OC)C(=O)[C@H](C)C[C@H](C)/C=C/C=C/C=C/1C [Ridaforolimus, ridaforolimus, reference compound] | 110 | 121 | 69 | 65.1 | 96 | 102 | 97.4 | 108 | 74.4 | 107 |  |
| Cc1c(NC(=O)OC[C@@H]2COCCN2)cn2ncnc(Nc3ccc4c(cnn4Cc4cccc(F)c4)c3)c12.Cl.Cl [BMS 599626 2HCL, BMS 599626 dihydrochloride] |  |  |  |  |  |  |  |  |  |  | Mean % Cell Survival (log (dose) [M] -5, Control cells, mean): 104.732%; Mean % Cell Survival (log (dose) [M] -5.33, Control cells, mean): 111.851%; Mean % Cell Survival (log (dose) [M] -5.66, Control cells, mean): 123.214%; Mean % Cell Survival (log (dose) [M] -6, Control cells, mean): 110.134%; Mean % Cell Survival (log (dose) [M] -6.33, Control cells, mean): 107.884%; Mean % Cell Survival (log (dose) [M] -6.66, Control cells, mean): 104.478%; Mean % Cell Survival (log (dose) [M] -7, Control cells, mean): 103.285%; Mean % Cell Survival (log (dose) [M] -7.33, Control cells, mean): 102.917%; Mean % Cell Survival (log (dose) [M] -7.66, Control cells, mean): 99.9891%; Mean % Cell Survival (log (dose) [M] -8, Control cells, mean): 98.951% |
| Cc1cnc(C(=O)N[C@H]2CCCCC/C=C\[C@@H]3C[C@@]3(C(=O)NS(=O)(=O)C3CC3)NC(=O)[C@@H]3C[C@@H](Oc4nc5ccccc5c5ccccc45)CN3C2=O)cn1 [Paritaprevir, paritaprevir, reference compound] | 96.8 | 93 | 96 | 95.4 | 98.6 | 97.7 | 95.4 | 95.7 | 95.5 | 101 |  |
| C[C@H](CCC(=O)NCCS(=O)(=O)O)[C@H]1CC[C@H]2[C@@H]3[C@H](O)C[C@@H]4C[C@H](O)CC[C@]4(C)[C@H]3C[C@H](O)[C@]12C [Taurocholic acid sodium, taurocholic acid sodium salt hydrate] |  |  |  |  |  |  |  |  |  |  | viability at 0.01 µM [11]: 66.6%; viability at 0.0219 µM [11]: 32.6%; viability at 0.0468 µM [11]: 97.7%; viability at 0.1 µM [11]: 29.1%; viability at 0.219 µM [11]: 62.6%; viability at 0.468 µM [11]: 97.8%; viability at 1 µM [11]: 95.9%; viability at 2.19 µM [11]: 69.4%; viability at 4.68 µM [11]: 66.2%; viability at 10 µM [11]: 96.3% |
| Cc1cc2c(C(C)C)c(O)c(O)c(C=O)c2c(O)c1-c1c(C)cc2c(C(C)C)c(O)c(O)c(C=O)c2c1O [Gossypol, gossypol] | 117 | 107 | 100 | 101 | 108 | 94.5 | 68 | 101 |  | 78.1 |  |
| Cc1c(-c2c(F)cc(C(N)=O)c3[nH]c4c(c23)CC[C@H](C(C)(C)O)C4)cccc1-n1c(=O)c2cccc(F)c2n(C)c1=O [BMS 986142] | 116 | 101 | 96.6 | 101 | 98 | 37.1 | 98.9 | 33.5 | 103 | 99.7 |  |
| COc1cc(O)c2c(=O)cc(-c3ccc(OC)c(-c4c(O)cc(O)c5c(=O)cc(-c6ccc(O)cc6)oc45)c3)oc2c1 [Ginkgetin, ginkgetin] | 56.2 | 65.7 | 98.7 | 85.7 | 31.8 | 96.2 | 94 | 96.8 | 95.6 | 68.4 | IC50 (Homo sapiens, TIS model, non-senescent A549, nuclei count, 72 h): 10.4 µM; % Cell Survival (log (dose) [M] -5): 52.2043% and 59.0944% and 57.4435%; % Cell Survival (log (dose) [M] -5.33): 97.7607% and 99.3093%; % Cell Survival (log (dose) [M] -5.66): 91.6025% and 99.9233% and 104.599%; % Cell Survival (log (dose) [M] -6): 75.5773% and 89.4858% and 92.1278%; % Cell Survival (log (dose) [M] -6.33): 95.472%; % Cell Survival (log (dose) [M] -6.66): 87.9636% and 100.998% and 99.7662%; % Cell Survival (log (dose) [M] -7): 85.4444% and 99.693% and 96.7264%; % Cell Survival (log (dose) [M] -7.33): 92.3723% and 99.3093% and 98.675%; % Cell Survival (log (dose) [M] -7.66): 89.3632% and 102.916% and 94.4661%; % Cell Survival (log (dose) [M] -8): 103.761% and 101.325% |
